# Reference: patent US20250256005A1, “FLOWABLE PASTE WITH ELLAGIC ACID-NICKEL COMPLEX AND USES THEREOF FOR ACTIVATING COAGULATION” (Ethicon, Inc., priority 2024, published 2025)
# Tested on: citrated whole blood (intrinsic pathway of coagulation)
# Experiment: Whole Blood (WB) gelation test
# Format: biochemical
# Conditions: ellagic acid without Nickel or any other metal
# Description: The aim was to assess how quickly the activators clot fresh whole blood.
# These clotting time assays evaluate the ability of a material to active the intrinsic pathway to form a fibrin clot in whole blood after recalcification of citrated blood. Fresh citrated blood is used to preserve clotting factors.
# WB Gelation Test: The WB gelation test uses a larger volume of blood compared to a small volume ACT tube to accommodate biomaterials, e.g., gelatins, collagen, thus allowing the WB gelation test to assess interactions between activators and biomaterials. […] To address this limitation, the WB Gelation Test was developed with a heated enclosure and larger tubes to accommodate larger volumes of blood and greater amounts of activators. Setup includes a plexiglass enclosure with a heating unit to perform the testing at 37° C. A temperature sensor in the enclosure maintained the temperature at 37° C. ±1° C. The enclosure contains an orbital rotator to gently mix the blood to with the other materials being tested while keeping it warm. The calcium saline and tube rocker are also in the enclosure. The enclosure has a front hinge to allow access from the front of the unit.
# In exemplary procedures, citrated whole blood (4 ml) was added to a 15 ml conical tube with activator/biomaterial and mixed, then calcium saline solution (2 ml) was added to the tube and the timer is started. […]
smiles,measurement,value
"O=c1oc2c(O)c(O)cc3c(=O)oc4c(O)c(O)cc1c4c23 [Ellagic acid, ellagic acid]",time over which no clotting was observed,over 1200 minutes
